Laboratory results from patent US12421211B2, “Heterocyclic compounds” (Hoffmann-La Roche Inc., priority 2021, dated 2025).
Counter-ions that a name gives are not always drawn.

What follows are compounds tested on Acinetobacter baumannii ATCC17961 (assay: Antimicrobial susceptibility testing: 90% growth inhibitory concentration (IC90) determination). Details: Acinetobacter baumannii, ATCC17961, 16 h, 90% growth inhibitory concentration, Acinetobacter baumannii ATCC17961, Iso-Sensitest broth, OD 600 nm over 16 h; read-out: ATCC 17961 IC90.
Type: cell-based
Protocol: Assay Procedures Antimicrobial Susceptibility Testing: 90% Growth Inhibitory Concentration (IC90) Determination
The in vitro antimicrobial activity of the compounds was determined according to the following procedure:
The assay used a 10-points Iso-Sensitest broth medium to measure quantitatively the in vitro activity of the compounds against Acinetobacter baumannii ATCC17961.
Stock compounds in DMSO were serially twofold diluted (e.g. range from 50 to 0.097 μM final concentration) in 384 wells microtiter plates and inoculated with 49 μl the bacterial suspension in Iso-Sensitest medium to have a final cell concentration of ˜5×10^(5) CFU/ml in a final volume/well of 50 ul/well. Microtiter plates were incubated at 35±2° C.
Bacterial cell growth was determined with the measurement of optical density at λ=600 nm each 20 minutes over a time course of 16h. Growth inhibition was calculated during the logarithmic growth of the bacterial cells with determination of the concentration inhibiting 50% (IC50) and 90% (IC90) of the growth.
Table 1 provides the 90% growth inhibitory concentrations (IC90) in micromoles per liter of the compounds of present invention obtained against the strain Acinetobacter baumannii ATCC17961.
For COCCn1ncc(-c2ccc(-c3cnc(C(=O)Nc4ccc(C(=O)N5CCNCC5)c(Cl)c4)n3C)c(F)c2F)c1C [Example E7, N-[3-chloro-4-(piperazine-1-carbonyl)phenyl]-5-[2,3-difluoro-4-[1-(2-methoxyethyl)-5-methyl-pyrazol-4-yl]phenyl]-1-methyl-imidazole-2-carboxamide; 2,2,2-trifluoroacetic acid], the IC90 was 210 nM.
Cn1c(-c2ccc(-c3c[nH]nc3-c3ccccc3)c(F)c2F)cnc1C(=O)Nc1ccc(C(=O)N2CCN(C(=O)C3CC[N+](C)(C)CC3)CC2)c(Cl)c1 [Example F27, N-[3-chloro-4-[4-(1,1-dimethylpiperidin-1-ium-4-carbonyl)piperazine-1-carbonyl]phenyl]-5-[2,3-difluoro-4-(3-phenyl-1H-pyrazol-4-yl)phenyl]-1-methyl-imidazole-2-carboxamide; formate] gave an IC90 of 400 nM.
With COCCn1ncc(-c2ccc(-c3cnc(C(=O)Nc4ccc(C(=O)N5CCC(C(=O)N6CC[N+](CC(N)=O)(CC7CNC7)CC6)CC5)c(Cl)c4)n3C)c(F)c2F)c1C [Example B24, N-[4-[4-[4-(2-amino-2-oxo-ethyl)-4-(azetidin-3-ylmethyl)piperazin-4-ium-1-carbonyl]piperidine-1-carbonyl]-3-chloro-phenyl]-5-[2,3-difluoro-4-[1-(2-methoxyethyl)-5-methyl-pyrazol-4-yl]phenyl]-1-methyl-imidazole-2-carboxamide; 2,2,2-trifluoroacetate; 2,2,2-trifluoroacetic acid] the IC90 was 95 nM.
COCCn1ncc(-c2ccc(-c3cnc(C(=O)Nc4ccc(C(=O)N5CCN(C(=O)CCC[N+](CCN(C)C)(CCN(C)C)CC(=O)O)CC5)c(Cl)c4)n3C)c(F)c2F)c1C [Example P4, carboxymethyl-[4-[4-[2-chloro-4-[[5-[2,3-difluoro-4-[1-(2-methoxyethyl)-5-methyl-pyrazol-4-yl]phenyl]-1-methyl-imidazole-2-carbonyl]amino]benzoyl]piperazin-1-yl]-4-oxo-butyl]-bis[2-(dimethylamino)ethyl]ammonium; 2,2,2-trifluoroacetate] was tested, and the IC90 was 657 nM.
For COCCn1ncc(-c2ccc(-c3cnc(C(=O)Nc4ccc(C(=O)N5CCN(C(=O)[C@@H]6C[C@@H](O)C[N+]6(C)C)CC5)c(Cl)c4)n3C)c(F)c2F)c1C(F)F [Example F12, N-[3-chloro-4-[4-[(2S,4R)-4-hydroxy-1,1-dimethyl-pyrrolidin-1-ium-2-carbonyl]piperazine-1-carbonyl]phenyl]-5-[4-[5-(difluoromethyl)-1-(2-methoxyethyl)pyrazol-4-yl]-2,3-difluoro-phenyl]-1-methyl-imidazole-2-carboxamide; formate], the IC90 was 170 nM.
With COCCn1ncc(-c2ccc(-c3cnc(C(=O)Nc4ccc(C(=O)N[C@H]5[C@@H]6CN(C(=O)N[C@@H]7C[N+](C)(C)C[C@H]7O)C[C@@H]65)c(Cl)c4)n3C)c(F)c2F)c1C [Example F66, (1S,5R)-6-[[2-chloro-4-[[5-[2,3-difluoro-4-[1-(2-methoxyethyl)-5-methyl-pyrazol-4-yl]phenyl]-1-methyl-imidazole-2-carbonyl]amino]benzoyl]amino]-N-[(3R,4R)-4-hydroxy-1,1-dimethyl-pyrrolidin-1-ium-3-yl]-3-azabicyclo[3.1.0]hexane-3-carboxamide; formate] the IC90 was 29 nM.
For Cn1c(-c2ccc(-c3cn[nH]c3)nc2F)cnc1C(=O)Nc1ccc(C(=O)N2CCN(C(=O)C3CCNCC3)CC2)c(Cl)c1 [Example E18, N-[3-chloro-4-[4-(piperidine-4-carbonyl)piperazine-1-carbonyl]phenyl]-5-[2-fluoro-6-(1H-pyrazol-4-yl)-3-pyridyl]-1-methyl-imidazole-2-carboxamide], the IC90 was 820 nM.
Cc1ccc(NC(=O)NCCn2cc(-c3ccc(-c4cnc(C(=O)Nc5ccc(C(=O)N6CCN(C(=O)C7CC[N+](C)(C)CC7)CC6)c(Cl)c5)n4C)c(F)c3F)c(C)n2)cn1 [Example M1, N-[3-chloro-4-[4-(1,1-dimethylpiperidin-1-ium-4-carbonyl)piperazine-1-carbonyl]phenyl]-5-[2,3-difluoro-4-[3-methyl-1-[2-[(6-methyl-3-pyridyl)carbamoylamino]ethyl]pyrazol-4-yl]phenyl]-1-methyl-imidazole-2-carboxamide formate] was tested, and the IC90 was 152 nM.
Cc1nn(-c2ccc(N)cn2)cc1-c1ccc(-c2cnc(C(=O)Nc3ccc(C(=O)N4CCN(C(=O)C5CC[N+](C)(C)CC5)CC4)c(Cl)c3)n2C)c(F)c1F [Example F40, 5-[4-[1-(5-amino-2-pyridyl)-3-methyl-pyrazol-4-yl]-2,3-difluoro-phenyl]-N-[3-chloro-4-[4-(1,1-dimethylpiperidin-1-ium-4-carbonyl)piperazine-1-carbonyl]phenyl]-1-methyl-imidazole-2-carboxamide; chloride] showed an IC90 of 610 nM.
With COCCn1ncc(-c2ccc(-c3cnc(C(=O)Nc4ccc(C(=O)N5CCN(C(=O)C6CC[N+](CC(=O)O)(CC7CNC7)CC6)CC5)c(Cl)c4)n3C)c(C)c2F)c1C (centres unmarked) [Example B39, 2-[1-(azetidin-3-ylmethyl)-4-[4-[2-chloro-4-[[5-[3-fluoro-4-[1-(2-methoxyethyl)-5-methyl-pyrazol-4-yl]-2-methyl-phenyl]-1-methyl-imidazole-2-carbonyl]amino]benzoyl]piperazine-1-carbonyl]piperidin-1-ium-1-yl]acetic acid; formate] the IC90 was 250 nM.
COCCn1ncc(-c2ccc(-c3cnc(C(=O)Nc4ccc(C(=O)N5CCN(C(=O)C6CCNCC6O)CC5)c(Cl)c4)n3C)c(F)c2F)c1C (centres unmarked) [Example D25, N-[3-chloro-4-[4-(3-hydroxypiperidine-4-carbonyl)piperazine-1-carbonyl]phenyl]-5-[2,3-difluoro-4-[1-(2-methoxyethyl)-5-methyl-pyrazol-4-yl]phenyl]-1-methyl-imidazole-2-carboxamide; formic acid] was tested, and the IC90 was 51 nM.
With COCCCn1ncc(-c2ccc(-c3cnc(C(=O)Nc4ccc(C(=O)N5CCN(C(=O)[C@@H]6C[C@@H](O)C[N+]6(C)C)CC5)c(Cl)c4)n3C)c(F)c2F)c1C [Example D12, N-[3-chloro-4-[4-[(2S,4R)-4-hydroxy-1,1-dimethyl-pyrrolidin-1-ium-2-carbonyl]piperazine-1-carbonyl]phenyl]-5-[2,3-difluoro-4-[1-(3-methoxypropyl)-5-methyl-pyrazol-4-yl]phenyl]-1-methyl-imidazole-2-carboxamide; formate] the IC90 was 200 nM.
For COCCn1cc(-c2ccc(-c3cnc(C(=O)Nc4ccc(C(=O)N5CCN(C(=O)C6CC[N+](C)(CC(N)=O)CC6)CC5)c(Cl)c4)n3C)c(F)c2F)c(C)n1 (centres unmarked) [Example B2, N-[4-[4-[1-(2-amino-2-oxo-ethyl)-1-methyl-piperidin-1-ium-4-carbonyl]piperazine-1-carbonyl]-3-chloro-phenyl]-5-[2,3-difluoro-4-[1-(2-methoxyethyl)-3-methyl-pyrazol-4-yl]phenyl]-1-methyl-imidazole-2-carboxamide; formate], the IC90 was 120 nM.

Same assay, conditions: Acinetobacter baumannii, ATCC17961, 16 h, read-out: ATCC 17961 IC90
Work on COCCn1cc(-c2ccc(-c3cnc(C(=O)Nc4ccc(C(=O)N5CCN(C(=O)C[N+]6(C)CC[C@@H](O)C6)CC5)c(Cl)c4)n3C)c(F)c2F)c(C)n1 (stereo partly drawn) [Example C8, N-[3-chloro-4-[4-[2-[(3R)-3-hydroxy-1-methyl-pyrrolidin-1-ium-1-yl]acetyl]piperazine-1-carbonyl]phenyl]-5-[2,3-difluoro-4-[1-(2-methoxyethyl)-3-methyl-pyrazol-4-yl]phenyl]-1-methyl-imidazole-2-carboxamide; formate] yielded an IC90 of 210 nM.
